Results reported in ChEMBL document CHEMBL1146987, “Ketopiperazine-based renin inhibitors: optimization of the "C" ring” (Bioorg Med Chem Lett, 2006).

Assays:
Renin = biological target: T1, Renin (Homo sapiens, UniProt P00797); test: Inhibition of renin
T1 sequence (P00797 whole entry): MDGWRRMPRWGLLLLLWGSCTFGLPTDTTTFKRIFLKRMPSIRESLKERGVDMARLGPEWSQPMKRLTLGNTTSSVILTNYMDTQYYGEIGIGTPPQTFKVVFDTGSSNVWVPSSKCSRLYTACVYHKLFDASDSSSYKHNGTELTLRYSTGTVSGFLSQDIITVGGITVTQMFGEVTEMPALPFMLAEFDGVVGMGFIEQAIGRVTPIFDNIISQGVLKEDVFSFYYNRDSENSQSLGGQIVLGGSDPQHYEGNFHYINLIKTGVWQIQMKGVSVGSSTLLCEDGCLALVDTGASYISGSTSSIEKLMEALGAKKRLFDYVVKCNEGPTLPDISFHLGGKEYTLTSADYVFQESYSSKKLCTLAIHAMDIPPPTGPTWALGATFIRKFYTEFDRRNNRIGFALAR

CYP3A4 = CYP3A4 (Homo sapiens, UniProt P08684); test: Inhibition of CYP3A4 at 3 uM; type: ADME
Sequence of CYP3A4 (P08684 whole entry): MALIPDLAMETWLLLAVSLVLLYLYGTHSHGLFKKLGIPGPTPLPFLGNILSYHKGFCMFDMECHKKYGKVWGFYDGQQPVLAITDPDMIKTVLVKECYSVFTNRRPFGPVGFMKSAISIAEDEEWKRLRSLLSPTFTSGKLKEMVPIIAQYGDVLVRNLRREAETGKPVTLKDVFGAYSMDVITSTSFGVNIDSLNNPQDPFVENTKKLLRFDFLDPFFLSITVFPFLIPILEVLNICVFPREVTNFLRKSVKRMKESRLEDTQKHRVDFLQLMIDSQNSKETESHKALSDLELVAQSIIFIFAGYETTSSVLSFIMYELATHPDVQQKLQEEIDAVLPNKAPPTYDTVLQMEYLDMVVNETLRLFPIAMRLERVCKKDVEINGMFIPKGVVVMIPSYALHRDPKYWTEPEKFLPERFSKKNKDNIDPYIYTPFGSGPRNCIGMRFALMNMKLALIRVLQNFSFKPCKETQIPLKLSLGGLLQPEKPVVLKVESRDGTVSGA

Cytochrome P450 3A4 = Cytochrome P450 3A4 (Homo sapiens, UniProt P08684); test: Inhibition of CYP3A4 using BFC fluorogenic substrate; type: ADME
Sequence of Cytochrome P450 3A4 (P08684 whole entry): as above

| Structure (SMILES) | IC50 (Renin) | inhibition at 3 µM (CYP3A4) | IC50 (Cytochrome P450 3A4) |
| --- | --- | --- | --- |
| COCCCN1C(=O)COc2ccc(OC[C@H]3CNCC(=O)N3c3ccc(OCCCOCc4ccccc4OC)cc3)cc21 | 0.68 nM | 95% |  |
| COc1ccccc1COCCCOc1ccc(N2C(=O)CNC[C@@H]2COc2ccc3c(c2)N(CC(=O)O)C(=O)CO3)cc1 | 364 nM |  | 25000 nM |
| COc1ccccc1COCCCOc1ccc(N2C(=O)CNC[C@@H]2COc2ccc3c(c2)N(CCCO)CCC3)cc1 |  | 71% | 455 nM |
| COc1ccccc1COCCCOc1ccc(N2C(=O)CNC[C@@H]2CSc2ccc3c(c2)N(CC(=O)O)C(=O)CO3)cc1 | 1200 nM |  | 15000 nM |
| COc1ccccc1COCCCOc1ccc(N2C(=O)CNC[C@@H]2COc2ccc3c(c2)N(CCC(=O)O)CCC3)cc1 | 450 nM |  | 10000 nM |
| COc1ccccc1COCCCOc1ccc(N2C(=O)CNC[C@@H]2COc2ccc3c(c2)N(CCOC(C)=O)CCC3)cc1 |  | 87% |  |
| COc1ccccc1COCCCOc1ccc(N2C(=O)CNC[C@@H]2COc2ccc3c(c2)N(CCN(C)C(C)=O)CCC3)cc1 | 4 nM |  | 18 nM |
| COc1ccccc1COCCCOc1ccc(N2C(=O)CNC[C@@H]2COc2ccc3c(c2)N(CCNC(C)=O)CCC3)cc1 | 0.29 nM | 92% | 82 nM |
| CCC(=O)OCCN1CCCc2ccc(OC[C@H]3CNCC(=O)N3c3ccc(OCCCOCc4ccccc4OC)cc3)cc21 |  | 96% |  |
| COCCCN1CCCc2ccc(OC[C@H]3CNCC(=O)N3c3ccc(OCCCOCc4ccccc4OC)cc3)cc21 |  | 96% | 12 nM |
| COc1ccccc1COCCCOc1ccc(N2C(=O)CNC[C@@H]2COc2ccc3c(c2)N(CCN2CCOC2=O)CCC3)cc1 | > 1000 nM |  | 3790 nM |
| COCCCN1C(=O)COc2ccc(SC[C@H]3CNCC(=O)N3c3ccc(OCCCOCc4ccccc4OC)cc3)cc21 |  | 95% | 14 nM |
| COc1ccccc1COCCCOc1ccc(N2C(=O)CNC[C@@H]2COc2ccc3c(c2)N(CCN2CCCC2=O)CCC3)cc1 | 606 nM |  | 42 nM |
| COCCCN1C(=O)CCc2ccc(OC[C@H]3CNCC(=O)N3c3ccc(OCCCOCc4ccccc4OC)cc3)cc21 |  | 92% | 35 nM |
| COc1ccccc1COCCCOc1ccc(N2C(=O)CNC[C@@H]2COc2ccc3c(c2)N(CCOC(=O)C(C)C)CCC3)cc1 | 550 nM | 92% | 54 nM |
